Series [1] deals with male rats (Crj Wister Rat; 180 - 240 g). As to the kind of experiment: animal or person. In kind it is in vivo. Particulars: for ED50: Rattus norvegicus, 0.5 h; for Entero-pooling ED₅₀: rat, in vivo, 30 min.
The subject of another series is Ileum. The series can be described thus: tissue or blood. Particulars: Rattus norvegicus.
A further series deals with healthy male volunteers. Particulars: human, in vivo, po.
For another series, the system named is Male Crj Wister rats. As to the kind of experiment: animal or person. As to conditions: Rattus norvegicus, po, 6 h, read-out: Cathartic Effect ED50. In kind it is in vivo.
Setting [2] is: read-out: Intestinal Contraction.
Setting [3] is: read-out: Intestinal Contrac-tion.

Read-outs that look alike come from different tables or passages of the source.

`CCCCC(F)(F)C(=O)CC[C@@H]1[C@@H](C/C=C\CCCC(=O)OC)[C@@H](O)C[C@H]1O` [Test Drug 14, 13,14-dihydro-15-keto-16,16-difluoro-PGF₂α methyl ester]: the ED50 in series [1] (read-out: Entero-pooling ED₅₀) turned out to be 0.2 mg/kg. Moreover, the EC50 in the series on Ileum (setting [2]) fell in the range of 1 to 100 µM.

`CCCCC(F)C(=O)/C=C/[C@H]1[C@H](O)CC(=O)[C@@H]1C/C=C\CCCC(=O)OC` (stereo partly shown) [Test Drug 7, 15-keto-16R,S-fluoro-PGE₂ methyl ester]: the ED50 in series [1] (read-out: Enteropooling ED₅₀) stood at 0.002 mg/kg. For the same compound, the EC50 in the series on Ileum (setting [2]) was in the range of 1 to 100 µM.

As for `CCCCC(F)C(=O)/C=C/[C@H]1[C@H](O)CC(=O)[C@@H]1C/C=C\CCCC(=O)O` (stereo partly shown) [Test Drug 6, 15-keto-16R,S-fluoro-PGE₂], the ED50 in series [1] (read-out: Enteropooling ED₅₀) was determined as 0.002 mg/kg. In addition, the EC50 with Ileum (setting [2]) fell in the range of 1 to 100 µM.

Regarding `CCCCC(F)C(=O)CC[C@H]1[C@H](O)CC(=O)[C@@H]1C/C=C\CCCC(=O)OC` (stereo partly shown) [Test Drug 2, 13,14-dihydro-15-keto-16R,S-fluoro-prostaglandin], the ED50 in series [1] (read-out: Entero-pooling ED50) was 0.003 mg/kg. Also, in the series on healthy male volunteers, the “abnormality or malaise in belly at 8 hours after administration” value was “no particular abnormality nor malaise in belly”, the clinical observation entry is “no abnormality” and the other side effects result was “no one complained of other side effects such as bellyache”. Further, the EC50 in the series with Ileum (setting [3]) is 1 to 100 µM. Further, in the series on Male Crj Wister rats, the ED50 stood at 0.8 mg/kg.

In the case of `CCCCCC(F)C(=O)CC[C@@H]1[C@@H](C/C=C\CCCC(=O)OC)[C@@H](O)C[C@H]1O` (stereo partly drawn) [Test Drug 15, 13,14-dihydro-15-keto-16R,S-fluoro-20-methyl-PGF₂α methyl ester], the ED50 in series [1] (read-out: Entero-pooling ED₅₀) was found to be 0.3 mg/kg. Besides, the EC50 in the series with Ileum (setting [2]) fell in the range of 1 to 100 µM.

As to `CCCCC(F)(F)C(=O)CC[C@H]1[C@H](O)CC(=O)[C@@H]1C/C=C\CCCC(=O)OC` [Test Drug 8, 13,14-dihydro-15-keto-16,16-difluoro-PGE₂ methyl ester], the ED50 in series [1] (read-out: Enteropooling ED₅₀) amounted to 0.0002 mg/kg. For the same compound, the EC50 in the series on Ileum (setting [2]) was in the range of 1 to 100 µM.

On to `CCCCC[C@H](O)/C=C/[C@H]1[C@H](O)CC(=O)[C@@H]1C/C=C\CCCC(=O)O` [Test Drug 1, Prostaglandin E2, reference compound], for which the ED50 was 0.13 mg/kg in series [1] (read-out: Entero-pooling ED50) and over 10 mg/kg with Male Crj Wister rats. Also, in the series with Ileum (setting [3]), the EC50 was under 1 µM.

With `CCCCC(F)C(=O)CC[C@H]1[C@H](O)CC(=O)[C@@H]1C/C=C\CCCC(=O)OCC` (stereo partly shown) [Test Drug 4, 13,14-dihydro-15-keto-16R,S-fluoro-PGE₂ ethyl ester], the ED50 in series [1] (read-out: Enteropooling ED₅₀) was found to be 0.002 mg/kg. In the series on Ileum (setting [2]), the EC50 fell in the range of 1 to 100 µM.

As to `CCCCC(F)C(=O)CC[C@@H]1[C@@H](C/C=C\CCCC(=O)OC)[C@@H](O)C[C@H]1O` (stereo partly drawn) [Test Drug 13, 13,14-dihydro-15-keto-16R,S-fluoro-PGF₂α methyl ester], the ED50 in series [1] (read-out: Entero-pooling ED₅₀) came to 0.14 mg/kg.

For `CCCCC(F)C(=O)CC[C@@H]1[C@@H](C/C=C\CCCC(=O)O)[C@@H](O)C[C@H]1O` (stereo partly drawn) [Test Drug 12, 13,14-dihydro-15-keto-16R,S-fluoro-PGF₂α], the ED50 in series [1] (read-out: Entero-pooling ED₅₀) turned out to be 0.2 mg/kg. In addition, the EC50 in the series with Ileum (setting [2]) is over 100 µM.

Regarding `CCCCCC(F)C(=O)CC[C@H]1[C@H](O)CC(=O)[C@@H]1C/C=C\CCCC(=O)OC` (stereo partly shown) [Test Drug 5, 13,14-dihydro-15-keto-16R,S-fluoro-20-methyl-PGE₂ methyl ester], the ED50 in series [1] (read-out: Enteropooling ED₅₀) came out at 0.002 mg/kg. The EC50 in the series with Ileum (setting [2]) was 1 to 100 µM.

For “13,14-dihydro-15-keto-16R,S-fluoro-Δ²-PGA₁ [Test Drug 9]”, in series [1], the “Entero-pooling ED₅₀” value was found to be 0.2 mg/kg.

In the case of `CCCCC[C@H](O)/C=C/[C@@H]1[C@@H](C/C=C\CCCC(=O)O)[C@@H](O)C[C@H]1O` [Test Drug 19, PGF₂α, reference compound], the ED50 in series [1] (read-out: Entero-pooling ED₅₀) is 4.9 mg/kg. In the series with Ileum (setting [2]), the EC50 is under 1 µM.

Regarding `CCCCCCC(F)C(=O)CC[C@@H]1[C@@H](C/C=C\CCCC(=O)O)[C@@H](O)C[C@H]1O` (stereo partly drawn) [Test Drug 16, 13,14-dihydro-15-keto-20-ethyl-16R,S-fluoro-PGF₂α], the ED50 in series [1] (read-out: Entero-pooling ED₅₀) came out at 0.7 mg/kg. In addition, the EC50 with Ileum (setting [2]) is over 100 µM.

Consider `CCCCCCC(F)C(=O)CC[C@@H]1[C@@H](C/C=C\CCCC(=O)OC)[C@@H](O)C[C@H]1O` (stereo partly drawn) [Test Drug 17, 13,14-dihydro-15-keto-20-ethyl-16R,S-fluoro-PGF₂α methyl ester], for which, in series [1] (read-out: Entero-pooling ED₅₀), the ED50 was determined as 0.6 mg/kg. Moreover, the EC50 in the series on Ileum (setting [2]) is 1 to 100 µM.

For `CCCCC(F)C(=O)/C=C/[C@@H]1[C@@H](C/C=C\CCCC(=O)OC)[C@@H](O)C[C@H]1O` (stereo partly drawn) [Test Drug 18, 15-keto-16-R,S-fluoro-PGF₂α methyl ester], in series [1] (read-out: Entero-pooling ED₅₀), the ED50 amounted to 0.15 mg/kg. Further, the EC50 with Ileum (setting [2]) is over 100 µM.

In the case of “13,14-dihydro-15-keto-16R,S-fluoro-Δ²-PGA₁ methyl ester [Test Drug 10]”, in series [1], the “Entero-pooling ED₅₀” value is recorded as 0.2 mg/kg.

Take `CCCCC[C@H](O)/C=C/[C@H]1C=CC(=O)[C@@H]1CCCCCCC(=O)O` [Test Drug 11, PGA₁, reference compound]: the ED50 in series [1] (read-out: Entero-pooling ED₅₀) was 4 mg/kg.
